Data on six molecules can be found in US12011506B2, “Combination and uses and treatments thereof” (priority 2017, dated 2024).

As usually defined, the half-life is the time needed for the level to fall by half in the phase considered.

Each structure is given as a SMILES string.

The conditions of series [1]: human, in vivo.
The conditions of series [2]: human, in vivo. The source holds these as a separate data set.
The test system of a further series is cytochrome P450 CYP3A. The series can be described thus: Rilpivirine in vitro oxidative metabolism. The conditions noted are these: in vitro experiments. Format: in vitro ADME.
The nature of series [3]: Food effect pharmacokinetics: high-fat or moderate-fat meal versus fasted (Tables 20, 21). The text has this: Cmax, AUC0-t, AUC0-∞ and AUClast are standard pharmacokinetic parameters that can be estimated manually or by using modelling software well known in the art, such as the Pharsight WinNonlin package using a non-compartmental model. The general basis for calculation of these quantities is well-known (e.g. see Rowland & Tozer (2010) Clinical Pharmacokinetics and Pharmacodynamics: Concepts and Applications ISBN 978-0781750097, or Jambhekar & Breen (2012) Basic Pharmacokinetics ISBN 978-0853699804). Typically the parameters will be assessed as the average (e.g. geometric or arithmetic mean) from within a group of at least 12 (and normally between 24 and 36) healthy human adults. Parameters should be measured in accordance with standards and practices which would be acceptable to a pharmaceutical regulatory agency such as FDA, EMA, MHLW, or WHO. The values may be based on measurements taken at appropriate intervals following the time of tablet ingestion, such as every hour, or at increasingly sparse sampling intervals, such as 1, 3, 5, 7, 9, 11, 13, 15, 20, and 24 hours after ingestion.

Series [4] can be described thus: Excretion after single dose oral administration of [14C] rilpivirine. As to conditions: single dose oral [14C] rilpivirine. Format: in vivo, human. The text has this:
In feces, unchanged rilpivirine accounted for on average 25% of the administered dose. […] The pharmacokinetic properties of rilpivirine have been evaluated in adult healthy subjects and in adult antiretroviral treatment-naïve HIV-1-infected subjects. Exposure to rilpivirine was generally lower in HIV-1 infected subjects than in healthy subjects.

The nature of series [5]: Rilpivirine oral pharmacokinetics. The class given is in vivo, human.
Series [6] is described as follows: Excretion after a single oral dose of [14C] dolutegravir. The class given is in vivo, human. The conditions noted are these: single oral dose of [14C] dolutegravir.
Another series addresses CYP3A4 (Homo sapiens, UniProt P08684). The conditions noted are these: cited from earlier work.
Series [7] in a line: Dolutegravir oral pharmacokinetics (absorption, steady state, population pharmacokinetic analyses). The class given is in vivo, human.
A short description of series [8]: Established and other potentially significant drug interactions with JULUCA (effect on concentration). As to conditions: concomitant drug with JULUCA; based on drug interaction trials or predicted interactions. Format: in vivo, human.
Source text: (§1) These recommendations are based on either drug interaction trials of individual components or predicted interactions due to the expected magnitude of interaction and potential for serious adverse events or loss of efficacy.
Series [9] is described as follows: Drug interaction trials: effect of dolutegravir on pharmacokinetics of coadministered drugs. As to conditions: No Effect = 1.00.
Source text: as §1
Series [10] in a line: Drug interaction trials: effect of rilpivirine on pharmacokinetics of coadministered drugs. As to conditions: No Effect = 1.00.
Where [11] appears, read: high-fat meal compared with fasted conditions.
The mark [12] stands for this setting: moderate-fat meal compared with fasted conditions.

Sequence of CYP3A4 (P08684 whole entry): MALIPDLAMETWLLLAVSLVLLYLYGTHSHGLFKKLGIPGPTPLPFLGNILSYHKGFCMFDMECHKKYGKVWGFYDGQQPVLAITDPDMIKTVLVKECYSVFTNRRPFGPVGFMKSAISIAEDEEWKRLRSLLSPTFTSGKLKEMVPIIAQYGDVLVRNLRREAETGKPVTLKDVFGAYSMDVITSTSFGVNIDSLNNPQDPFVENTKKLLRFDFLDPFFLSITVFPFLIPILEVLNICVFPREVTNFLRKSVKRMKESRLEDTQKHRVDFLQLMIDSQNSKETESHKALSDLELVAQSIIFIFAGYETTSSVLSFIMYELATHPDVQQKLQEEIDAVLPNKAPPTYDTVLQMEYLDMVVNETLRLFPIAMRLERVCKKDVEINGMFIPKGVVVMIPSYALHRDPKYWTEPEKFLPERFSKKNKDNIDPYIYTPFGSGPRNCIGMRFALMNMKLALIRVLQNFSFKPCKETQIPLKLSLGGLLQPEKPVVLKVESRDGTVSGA

`CC(=O)Nc1ccc(O)cc1` [Acetaminophen]: in series [1], the “Rilpivirine AUC, geometric mean ratio with/without coadministered drug” value is reported as 1.16; the “Rilpivirine Cmax, geometric mean ratio with/without coadministered drug” value was determined as 1.09; the “Rilpivirine Cmin, geometric mean ratio with/without coadministered drug” value stood at 1.26. Also, in [2], the “AUC of coadministered drug, geometric mean ratio with/without EDURANT” value (“AUC … geometric mean ratio with/without EDURANT” for short) was 0.91 and the “Cmax of coadministered drug, geometric mean ratio with/without EDURANT” value (“Cmax … geometric mean ratio with/without EDURANT” below) is given as 0.97.
Taken in the same sequence, the figures for `CCCc1nn(C)c2c(=O)[nH]c(-c3cc(S(=O)(=O)N4CCN(C)CC4)ccc3OCC)nc12` [Sildenafil] were 0.98, 0.92, 1.04, 0.97 and 0.93.
Turning to `Cc1cc(/C=C/C#N)cc(C)c1Nc1ccnc(Nc2ccc(C#N)cc2)n1` [Rilpivirine, 4-[[4-[[4-[(E)-2-cyanoethenyl]-2,6-dimethylphenyl]amino]-2-pyrimidinyl]amino]benzonitrile], the Metabolic pathway result with cytochrome P450 CYP3A was “primarily metabolized by CYP3A”. Further, in the series with cytochrome P450 CYP3A (listed as rilpivirine), the Metabolic pathway result is “primarily undergoes oxidative metabolism mediated by the cytochrome P450 CYP3A system”. Moreover, in series [3] (setting [11]), the “Increase of AUC(0-∞)” value is given as 72% and the “Increase of Cmax” value was 117%. Moreover, in series [3] (setting [12]), the “Increase of AUC(0-∞)” value is on record as 57% and the “Increase of Cmax” value was found to be 89%. In addition, in series [4], the “Unchanged rilpivirine in urine” value was < 1 % of dose. In [4] (on average), the “Radioactivity retrieved in feces” value was determined as 85%, the “Radioactivity retrieved in urine” value turned out to be 6.1% and the “Unchanged rilpivirine in feces” value is 25 % of the administered dose. Moreover, the half-life in [5] (human, in vivo, oral, read-out: Terminal elimination half-life (converted)) was approximately 50 h. Besides, the “Exposures lower than when taken with a meal” value in series [5] (taken with only a protein-rich nutritional drink) is reported as 50%.
As to `C[C@@H]1CCO[C@H]2Cn3cc(C(=O)NCc4ccc(F)cc4F)c(=O)c(O)c3C(=O)N12` [Dolutegravir, (4R,12aS)—N-[(2,4-difluorophenyl)methyl]-7-hydroxy-4-methyl-6,8-dioxo-3,4,12,12a-tetrahydro-2H-pyrido[5,6]pyrazino[2,6-b][1,3]oxazine-9-carboxamide], in series [6], the “Renal elimination of unchanged drug” value is “less than 1 % of the dose”, the “Total oral dose excreted in the urine” value is reported as “Thirty-one” and the “Total oral dose excreted unchanged in the feces” value is 53%. In addition, the “Extent as substrate of CYP3A4” value at CYP3A4 was “about 15%”. In addition, in [3] (human, in vivo), the “Increase of AUC(0-∞)” value is “approximately 87%”. Further, in series [3] (moderate- and high-fat meals each, compared with fasted conditions), the “Increase of Cmax” value is on record as “approximately 75%”. Moreover, in [7] (human, plasma, oral, population pharmacokinetic analyses, read-out: Terminal half-life (converted)), the half-life was approximately 14 h. Further, the “Time to pharmacokinetic steady state” value in series [7] (once-daily dosing) is not above 5 days. For the same molecule, the “Apparent clearance (CL/F)” value in series [7] (population pharmacokinetic analyses) is 1.0 L per hour.
For `COc1ccc2[nH]c([S+]([O-])Cc3ncc(C)c(OC)c3C)nc2c1` (stereo not drawn) [Omeprazole], in series [8], the “Effect on Concentration of Rilpivirine” value was “↓Rilpivirine”. Also, in [1], the “Rilpivirine AUC, geometric mean ratio with/without coadministered drug” value is 0.60; the “Rilpivirine Cmax, geometric mean ratio with/without coadministered drug” value came to 0.60; the “Rilpivirine Cmin, geometric mean ratio with/without coadministered drug” value is recorded as 0.67. In [2], the “AUC … geometric mean ratio with/without EDURANT” value is on record as 0.86 and the “Cmax … geometric mean ratio with/without EDURANT” value was found to be 0.86.
Turning to `C#C[C@]1(O)CC[C@H]2[C@@H]3CCc4cc(O)ccc4[C@H]3CC[C@@]21C` [Ethinyl estradiol], in series [9], the “Cmax of coadministered drug, geometric mean ratio with/without dolutegravir” value is given as 0.99 and the “Cτ or C24 of coadministered drug, geometric mean ratio with/without dolutegravir” value was found to be 1.02. Besides, the “Cmin of coadministered drug, geometric mean ratio with/without EDURANT” value in [10] is 1.09. In [2], the “AUC … geometric mean ratio with/without EDURANT” value was 1.14 and the “Cmax … geometric mean ratio with/without EDURANT” value amounted to 1.17.
